Experiments:
[1] = molecular target: Vascular endothelial growth factor receptor 2 (Homo sapiens, UniProt P35968)
[2] = molecular target: Fibroblast growth factor receptor 1 (Homo sapiens, UniProt P11362); assay: Inhibitory activity against Fibroblast growth factor receptor 1
[3] = molecular target: Platelet-derived growth factor receptor beta (Homo sapiens, UniProt P09619)
[4] = molecular target: Epidermal growth factor receptor (Homo sapiens, UniProt P00533)
Chain of Epidermal growth factor receptor (P00533 whole entry): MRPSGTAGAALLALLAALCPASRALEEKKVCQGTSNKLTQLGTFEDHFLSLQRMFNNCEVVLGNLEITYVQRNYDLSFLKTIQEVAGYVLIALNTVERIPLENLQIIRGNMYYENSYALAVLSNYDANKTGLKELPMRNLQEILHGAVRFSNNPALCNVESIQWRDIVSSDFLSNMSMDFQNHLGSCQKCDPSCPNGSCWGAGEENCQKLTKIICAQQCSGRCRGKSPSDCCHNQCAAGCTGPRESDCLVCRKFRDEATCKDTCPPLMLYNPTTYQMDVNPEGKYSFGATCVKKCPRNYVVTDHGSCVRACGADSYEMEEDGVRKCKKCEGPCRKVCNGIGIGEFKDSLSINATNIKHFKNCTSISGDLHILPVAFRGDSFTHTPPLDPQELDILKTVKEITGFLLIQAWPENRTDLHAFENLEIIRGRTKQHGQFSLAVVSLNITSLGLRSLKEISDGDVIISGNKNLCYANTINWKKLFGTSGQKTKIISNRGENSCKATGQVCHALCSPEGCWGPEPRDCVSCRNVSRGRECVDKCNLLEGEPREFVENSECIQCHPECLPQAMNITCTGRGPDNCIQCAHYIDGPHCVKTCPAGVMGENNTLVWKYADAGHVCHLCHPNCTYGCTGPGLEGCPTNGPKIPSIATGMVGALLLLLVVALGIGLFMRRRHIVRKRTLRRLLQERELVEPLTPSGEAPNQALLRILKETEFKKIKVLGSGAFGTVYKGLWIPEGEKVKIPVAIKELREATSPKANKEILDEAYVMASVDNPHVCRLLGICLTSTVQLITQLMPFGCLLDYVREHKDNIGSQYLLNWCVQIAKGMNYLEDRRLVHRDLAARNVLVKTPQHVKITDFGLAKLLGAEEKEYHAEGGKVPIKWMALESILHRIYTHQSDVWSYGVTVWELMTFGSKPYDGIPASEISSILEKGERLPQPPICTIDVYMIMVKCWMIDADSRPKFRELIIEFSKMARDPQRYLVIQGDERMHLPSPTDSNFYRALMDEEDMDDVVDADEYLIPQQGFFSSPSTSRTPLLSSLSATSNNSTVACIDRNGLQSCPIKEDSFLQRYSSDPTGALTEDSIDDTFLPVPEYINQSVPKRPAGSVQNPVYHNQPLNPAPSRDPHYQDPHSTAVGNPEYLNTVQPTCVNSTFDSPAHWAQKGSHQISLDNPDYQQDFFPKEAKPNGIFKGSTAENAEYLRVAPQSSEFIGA

Chain of Platelet-derived growth factor receptor beta (P09619 whole entry): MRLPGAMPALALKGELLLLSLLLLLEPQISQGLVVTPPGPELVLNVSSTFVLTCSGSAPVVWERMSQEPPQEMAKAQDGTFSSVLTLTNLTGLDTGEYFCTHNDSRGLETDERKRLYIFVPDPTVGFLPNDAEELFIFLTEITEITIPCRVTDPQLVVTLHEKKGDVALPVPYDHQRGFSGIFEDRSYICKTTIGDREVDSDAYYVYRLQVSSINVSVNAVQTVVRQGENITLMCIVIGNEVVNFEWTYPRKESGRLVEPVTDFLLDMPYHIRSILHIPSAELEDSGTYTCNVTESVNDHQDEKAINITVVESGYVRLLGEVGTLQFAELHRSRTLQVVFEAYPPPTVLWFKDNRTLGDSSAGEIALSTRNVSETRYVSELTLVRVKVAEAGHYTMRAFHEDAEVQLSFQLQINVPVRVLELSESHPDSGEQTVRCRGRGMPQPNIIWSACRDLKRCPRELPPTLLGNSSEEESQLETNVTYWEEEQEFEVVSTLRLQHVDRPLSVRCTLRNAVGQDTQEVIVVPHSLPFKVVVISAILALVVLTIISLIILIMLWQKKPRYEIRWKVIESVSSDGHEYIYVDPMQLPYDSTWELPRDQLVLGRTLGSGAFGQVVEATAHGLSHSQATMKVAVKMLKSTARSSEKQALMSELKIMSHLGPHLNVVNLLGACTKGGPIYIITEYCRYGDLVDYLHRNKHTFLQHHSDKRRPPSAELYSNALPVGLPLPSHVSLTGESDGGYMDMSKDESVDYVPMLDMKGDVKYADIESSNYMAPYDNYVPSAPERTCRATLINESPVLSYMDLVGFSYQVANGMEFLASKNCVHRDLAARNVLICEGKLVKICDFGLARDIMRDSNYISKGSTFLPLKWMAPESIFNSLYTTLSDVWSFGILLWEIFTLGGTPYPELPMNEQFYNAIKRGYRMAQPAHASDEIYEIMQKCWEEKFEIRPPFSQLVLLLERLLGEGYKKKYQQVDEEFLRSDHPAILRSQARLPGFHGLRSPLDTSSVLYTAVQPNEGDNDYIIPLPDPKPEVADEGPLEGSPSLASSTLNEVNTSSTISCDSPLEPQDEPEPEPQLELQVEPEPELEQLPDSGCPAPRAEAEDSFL
Chain of Fibroblast growth factor receptor 1 (P11362 whole entry): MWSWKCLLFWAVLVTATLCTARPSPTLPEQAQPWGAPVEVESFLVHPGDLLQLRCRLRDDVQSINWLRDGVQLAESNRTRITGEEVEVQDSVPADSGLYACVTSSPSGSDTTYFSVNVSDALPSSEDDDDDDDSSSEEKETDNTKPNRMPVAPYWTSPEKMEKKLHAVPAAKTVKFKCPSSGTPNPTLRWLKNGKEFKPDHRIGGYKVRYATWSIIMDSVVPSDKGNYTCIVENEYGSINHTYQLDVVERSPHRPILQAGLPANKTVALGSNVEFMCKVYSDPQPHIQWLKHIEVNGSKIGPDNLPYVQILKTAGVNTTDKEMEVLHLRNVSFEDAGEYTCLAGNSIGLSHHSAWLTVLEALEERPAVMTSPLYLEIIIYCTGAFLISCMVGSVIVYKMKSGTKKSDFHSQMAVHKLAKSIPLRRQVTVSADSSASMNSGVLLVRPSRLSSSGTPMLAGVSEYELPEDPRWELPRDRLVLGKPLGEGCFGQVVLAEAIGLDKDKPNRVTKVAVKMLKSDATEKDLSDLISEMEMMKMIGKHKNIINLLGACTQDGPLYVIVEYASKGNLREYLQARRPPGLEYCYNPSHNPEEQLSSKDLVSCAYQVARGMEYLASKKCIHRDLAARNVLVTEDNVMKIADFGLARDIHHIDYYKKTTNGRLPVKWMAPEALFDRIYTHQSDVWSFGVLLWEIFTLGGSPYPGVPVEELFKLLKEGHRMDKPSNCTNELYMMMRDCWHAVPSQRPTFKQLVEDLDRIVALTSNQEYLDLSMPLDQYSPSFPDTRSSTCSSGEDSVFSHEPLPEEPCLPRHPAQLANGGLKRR
Chain of Vascular endothelial growth factor receptor 2 (P35968 whole entry): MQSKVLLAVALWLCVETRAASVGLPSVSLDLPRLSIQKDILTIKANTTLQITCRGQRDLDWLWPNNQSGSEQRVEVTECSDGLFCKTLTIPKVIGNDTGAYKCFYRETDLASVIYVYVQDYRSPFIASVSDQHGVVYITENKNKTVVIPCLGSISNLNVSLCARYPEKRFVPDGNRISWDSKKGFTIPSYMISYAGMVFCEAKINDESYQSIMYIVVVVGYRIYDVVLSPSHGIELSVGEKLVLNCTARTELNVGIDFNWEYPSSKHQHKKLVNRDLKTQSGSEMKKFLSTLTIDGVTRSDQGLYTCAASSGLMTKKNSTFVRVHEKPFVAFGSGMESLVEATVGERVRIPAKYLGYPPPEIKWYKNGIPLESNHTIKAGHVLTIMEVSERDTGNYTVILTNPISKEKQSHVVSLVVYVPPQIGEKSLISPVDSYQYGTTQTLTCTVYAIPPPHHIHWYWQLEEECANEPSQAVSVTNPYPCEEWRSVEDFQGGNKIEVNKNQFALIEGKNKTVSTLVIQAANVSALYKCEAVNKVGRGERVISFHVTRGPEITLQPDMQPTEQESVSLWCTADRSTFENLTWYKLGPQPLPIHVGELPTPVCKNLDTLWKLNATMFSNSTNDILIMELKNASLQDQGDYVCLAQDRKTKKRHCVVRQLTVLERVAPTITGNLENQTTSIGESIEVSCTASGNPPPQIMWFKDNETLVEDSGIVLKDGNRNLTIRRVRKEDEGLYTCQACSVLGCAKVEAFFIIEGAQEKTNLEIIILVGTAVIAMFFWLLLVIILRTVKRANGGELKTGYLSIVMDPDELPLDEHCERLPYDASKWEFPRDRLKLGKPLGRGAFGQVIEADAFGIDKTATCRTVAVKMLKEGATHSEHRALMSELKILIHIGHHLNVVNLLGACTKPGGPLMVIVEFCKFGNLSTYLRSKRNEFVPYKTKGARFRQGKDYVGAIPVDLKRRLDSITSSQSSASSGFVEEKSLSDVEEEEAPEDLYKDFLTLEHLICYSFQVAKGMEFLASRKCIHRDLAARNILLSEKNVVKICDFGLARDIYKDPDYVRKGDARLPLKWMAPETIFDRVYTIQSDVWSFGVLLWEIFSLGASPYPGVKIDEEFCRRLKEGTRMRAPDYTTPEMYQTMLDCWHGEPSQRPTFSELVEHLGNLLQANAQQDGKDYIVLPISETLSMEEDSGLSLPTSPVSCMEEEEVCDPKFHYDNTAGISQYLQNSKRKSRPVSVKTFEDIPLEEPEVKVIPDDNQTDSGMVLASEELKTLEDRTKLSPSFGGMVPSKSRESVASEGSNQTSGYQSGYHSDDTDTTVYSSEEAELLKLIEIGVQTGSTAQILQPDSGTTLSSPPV

Compound | IC50 [1] [µM] | IC50 [2] [µM] | IC50 [3] [µM] | IC50 [4] [µM]
COc1cccc(-c2ccc3c(c2)NC(=O)/C3=C\c2[nH]c(C)c(CCC(=O)O)c2C)c1 | 0.3 | 1.4 | 0.1 | > 100
Cc1c[nH]c(/C=C2\C(=O)Nc3ccccc32)c1CCC(=O)O | 0.02 | 0.03 | 0.51 | > 100
Cc1c[nH]c(/C=C2\C(=O)Nc3cccc(C)c32)c1CCC(=O)O | – | – | – | > 100
Cc1[nH]c(/C=C2\C(=O)Nc3ccc(C(=O)O)cc32)c(C)c1CCC(=O)O | 0.07 | 0.28 | 1.21 | > 100
Cc1c(CCC(=O)O)c[nH]c1/C=C1\C(=O)Nc2cc(-c3ccccc3)ccc21 | 0.3 | 1.05 | 0.16 | > 100
Cc1c[nH]c(/C=C2\C(=O)Nc3ccc(Br)cc32)c1CCC(=O)O | – | – | – | > 100
Cc1c(CCC(=O)O)c[nH]c1/C=C1\C(=O)Nc2ccc(S(N)(=O)=O)cc21 | 0.92 | 0.46 | 5.98 | > 100
Cc1[nH]c(/C=C2\C(=O)Nc3ccc(Br)cc32)c(C)c1CCC(=O)O | 1.73 | 2.05 | 0.06 | > 100
Cc1[nH]c(/C=C2\C(=O)Nc3ccccc32)c(C)c1CCC(=O)O [ORANTINIB] | – | – | 0.06 | –
CCOc1cccc(-c2ccc3c(c2)NC(=O)/C3=C\c2[nH]cc(C)c2CCC(=O)O)c1 | – | 4.5 | – | > 100
COc1ccc(-c2ccc3c(c2)NC(=O)/C3=C\c2[nH]c(C)c(CCC(=O)O)c2C)cc1 | 0.52 | 5.76 | 1 | > 100
Cc1c(CCC(=O)O)c[nH]c1/C=C1\C(=O)Nc2ccccc21 | 2.14 | 3.68 | 0.14 | > 100
COc1ccccc1-c1ccc2c(c1)NC(=O)/C2=C\c1[nH]cc(CCC(=O)O)c1C | 1.47 | 2.13 | 1.42 | > 100
COc1cccc(-c2ccc3c(c2)NC(=O)/C3=C\c2[nH]cc(CCC(=O)O)c2C)c1 | 0.09 | 0.36 | 0.17 | > 100
Cc1[nH]c(/C=C2\C(=O)Nc3ccc(S(N)(=O)=O)cc32)c(C)c1CCC(=O)O | 1.26 | 0.28 | 1.53 | –
COc1cccc(-c2ccc3c(c2)NC(=O)/C3=C\c2[nH]cc(C)c2CCC(=O)O)c1 | – | 1.2 | 0.45 | > 100
Cc1[nH]c(/C=C2\C(=O)Nc3cc(-c4ccccc4)ccc32)c(C)c1CCC(=O)O | 0.14 | 2.29 | 0.01 | > 100
Cc1c(CCC(=O)O)c[nH]c1/C=C1\C(=O)Nc2ccc(C(=O)O)cc21 | 0.24 | 0.77 | 4.19 | > 100
COc1ccc(-c2ccc3c(c2)NC(=O)/C3=C\c2[nH]cc(CCC(=O)O)c2C)cc1 | 0.45 | 1.54 | 3.08 | > 100
COc1ccc2c(c1)NC(=O)/C2=C\c1[nH]cc(CCC(=O)O)c1C | 1.35 | 3.89 | 0.14 | > 100
COc1ccccc1-c1ccc2c(c1)NC(=O)/C2=C\c1[nH]c(C)c(CCC(=O)O)c1C | 4.37 | 7.33 | 2.22 | > 100
COc1ccc2c(c1)NC(=O)/C2=C\c1[nH]c(C)c(CCC(=O)O)c1C | 8.29 | 5.4 | 0.55 | > 100

— ChEMBL document CHEMBL1132535, “Design, synthesis, and evaluations of substituted 3-[(3- or 4-carboxyethylpyrrol-2-yl)methylidenyl]indolin-2-ones as inhibitors of VEGF, FGF, and PDGF receptor tyrosine kinases” (J Med Chem, 1999)
